Laboratory results as given in US20260325685A1, “Radiopharmaceutical Compositions Targeting Carbonic Anhydrase IX and Uses Thereof” (RayzeBio, Inc., priority 2023, published 2026).
Read-outs that look alike come from different tables or passages of the source.

What was measured:
[1] = biological target: T1, human CA-IX (Homo sapiens, UniProt Q16790); assay: Surface Plasmon Resonance (SPR) binding kinetics to recombinant human CA-IX (Biacore 8K, single-cycle kinetics, 1:1 binding model)
T1 construct: purchased Acro CA9-H82E3
How it was run: (§1)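 Proteins were captured on streptavidin chips at 1200-1800 RU (CA-IX 180 s, CA-XII 75 s injection). Compound was run at 9 concentrations (100-0.39 nM) in PBS-P+ pH 7.4 with 1% DMSO, 120 s association, 1200 s dissociation, 25° C. Rate constants came from reference- and DMSO-corrected curves.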

[2] = biological target: T2, human CA-XII (Homo sapiens, UniProt O43570); assay: Surface Plasmon Resonance (SPR) binding kinetics to recombinant human CA-XII (Biacore 8K, single-cycle kinetics, 1:1 binding model)
T2 construct: purchased Creative BioMart CA12-261H
T2 sequence (O43570 25-354): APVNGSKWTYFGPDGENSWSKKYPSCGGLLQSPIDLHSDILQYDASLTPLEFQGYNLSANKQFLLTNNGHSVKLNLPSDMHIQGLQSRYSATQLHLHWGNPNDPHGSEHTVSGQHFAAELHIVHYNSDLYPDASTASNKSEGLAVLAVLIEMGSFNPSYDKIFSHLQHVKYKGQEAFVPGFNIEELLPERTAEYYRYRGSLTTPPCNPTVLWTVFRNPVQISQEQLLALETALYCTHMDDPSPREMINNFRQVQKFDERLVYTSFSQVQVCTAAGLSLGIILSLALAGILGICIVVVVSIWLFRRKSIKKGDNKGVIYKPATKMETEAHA
How it was run: as §1

[3] = Chelated Metal: Lu-175; SPR, 25° C., pH 7.4; read-out: CAIX KD
[4] = Chelated Metal: Lu-175, 25° C., pH 7.4, read-out: CAXII KD
[5] = Chelated Metal: None; SPR, 25° C., pH 7.4; read-out: CAIX KD
[6] = KD ratio CAXII/CAIX; Chelated Metal: None
[7] = Chelated Metal: None, 25° C., pH 7.4, read-out: CAXII KD
[8] = read-out: CAIX KD; Chelated Metal: Lu-175; SPR, 25° C., pH 7.4
[9] = read-out: CAXII KD, Chelated Metal: Lu-175, 25° C., pH 7.4

Structure (SMILES) | Kd [1, 3] | Kd [2, 4] | also measured
NS(=O)(=O)c1nnc(NC(=O)C23CCC(c4cn(CCNC(=O)[C@@H]5CN(C(=O)CN6CCN(CC(=O)O)CCN(CC(=O)O)CCN(CC(=O)O)CC6)CCN5C(=O)CC[C@H](NC(=O)C[C@H](NC(=O)c5ccc(S(F)(F)(F)(F)F)cc5)C(=O)O)C(=O)O)nn4)(CC2)CC3)s1.[Lu+3] [Compound 109.58] | < 1 nM | < 1 nM | –
NS(=O)(=O)c1nnc(NC(=O)C23CCC(c4cn(CCNC(=O)[C@@H]5CN(C(=O)CN6CCN(CC(=O)O)CCN(CC(=O)O)CCN(CC(=O)O)CC6)CCN5C(=O)CC[C@H](NC(=O)C[C@H](NC(=O)c5coc(C(F)(F)F)n5)C(=O)O)C(=O)O)nn4)(CC2)CC3)s1.[Lu+3] [Compound 109.59] | < 1 nM | < 1 nM | –
N[C@@H](CC(=O)N[C@@H](CCC(=O)N1CCN(C(=O)CN2CCN(CC(=O)O)CCN(CC(=O)O)CCN(CC(=O)O)CC2)C[C@H]1C(=O)NCCn1cc(C23CCC(C(=O)Nc4nnc(S(N)(=O)=O)s4)(CC2)CC3)nn1)C(=O)O)C(=O)O.[Lu+3] [Compound 109.60] | < 1 nM | 1 to 2.5 nM | –
NS(=O)(=O)c1nnc(NC(=O)C23CC(c4cn(CCNC(=O)[C@@H]5CN(C(=O)CN6CCN(CC(=O)O)CCN(CC(=O)O)CCN(CC(=O)O)CC6)CCN5C(=O)C[C@H](NC(=O)C[C@H](NC(=O)C5CC6(C5)CC(F)(F)C6)C(=O)O)C(=O)O)nn4)(C2)C3)s1.[Lu+3] [Compound 109.61] | 1 to 2.5 nM | 2.5 to 10 nM | –
CC(CCCC(=O)N[C@@H](CC(=O)N[C@@H](CC(=O)N1CCN(C(=O)CN2CCN(CC(=O)O)CCN(CC(=O)O)CCN(CC(=O)O)CC2)C[C@H]1C(=O)NCCn1cc(C23CC(C(=O)Nc4nnc(S(N)(=O)=O)s4)(C2)C3)nn1)C(=O)O)C(=O)O)(c1ccc(O)cc1)c1ccc(O)cc1 [Compound 109.62] | – | – | Kd [1, 5]: < 1 nM; Ratio (CAXII/CAIX) [1, 6]: *** (10 < *** ≤ 50); Kd [2, 7]: > 10 nM
NS(=O)(=O)c1nnc(NC(=O)C23CC(c4cn(CCNC(=O)[C@@H]5CN(C(=O)CN6CCN(CC(=O)O)CCN(CC(=O)O)CCN(CC(=O)O)CC6)CCN5C(=O)C[C@H](NC(=O)C[C@H](NC(=O)Cc5ccc(C6CC6)cc5)C(=O)O)C(=O)O)nn4)(C2)C3)s1 [Compound 109.63] | – | – | Kd [1, 5]: < 1 nM; Ratio (CAXII/CAIX) [1, 6]: *** (10 < *** ≤ 50); Kd [2, 7]: 2.5 to 10 nM
NS(=O)(=O)c1nnc(NC(=O)C23CC(c4cn(CCNC(=O)[C@@H]5CN(C(=O)CN6CCN(CC(=O)O)CCN(CC(=O)O)CCN(CC(=O)O)CC6)CCN5C(=O)C[C@H](NC(=O)C[C@H](NC(=O)c5cccc(C6CC6)c5)C(=O)O)C(=O)O)nn4)(C2)C3)s1.[Lu+3] [Compound 109] | – | – | Kd [1, 8]: < 1 nM; Kd [2, 9]: 2.5 to 10 nM
NS(=O)(=O)c1nnc(NC(=O)C23CCC(c4cn(CCNC(=O)[C@@H]5CN(C(=O)CN6CCN(CC(=O)O)CCN(CC(=O)O)CCN(CC(=O)O)CC6)CCN5C(=O)CC[C@H](NC(=O)C[C@H](NCc5ccccc5)C(=O)O)C(=O)O)nn4)(CC2)CC3)s1.[Lu+3] [Compound 110] | – | – | Kd [1, 8]: < 1 nM; Kd [2, 9]: < 1 nM
CC(CCNC(=O)c1cnc(N[C@@H](CC(=O)N2CCN(C(=O)CN3CCN(CC(=O)O)CCN(CC(=O)O)CCN(CC(=O)O)CC3)C[C@@H]2C(=O)NCCn2cc(C34CC(C(=O)Nc5nnc(S(N)(=O)=O)s5)(C3)C4)nn2)C(=O)O)nc1)(c1ccc(O)cc1)c1ccc(O)cc1.[Lu+3] [Compound 111.1] | 1 to 2.5 nM | > 10 nM | –
NS(=O)(=O)c1nnc(NC(=O)C23CC(c4cn(CCNC(=O)[C@@H]5CN(C(=O)CN6CCN(CC(=O)O)CCN(CC(=O)O)CCN(CC(=O)O)CC6)CCN5C(=O)C[C@H](Nc5ncc(C(=O)NCc6ccc(C7CC7)cn6)cn5)C(=O)O)nn4)(C2)C3)s1.[Lu+3] [Compound 111.2] | 2.5 to 10 nM | > 10 nM | –
NS(=O)(=O)c1nnc(NC(=O)C23CC(c4cn(CCNC(=O)[C@@H]5CN(C(=O)CN6CCN(CC(=O)O)CCN(CC(=O)O)CCN(CC(=O)O)CC6)CCN5C(=O)C[C@H](Nc5ncc(C(=O)NCc6ccc(C7CC7)cc6)cn5)C(=O)O)nn4)(C2)C3)s1.[Lu+3] [Compound 111.3] | 1 to 2.5 nM | > 10 nM | –
NS(=O)(=O)c1nnc(NC(=O)C23CC(c4cn(CCNC(=O)[C@@H]5CN(C(=O)CN6CCN(CC(=O)O)CCN(CC(=O)O)CCN(CC(=O)O)CC6)CCN5C(=O)C[C@H](Nc5ncc(C(=O)N6CCC(c7ccc(O)cc7)(c7ccc(O)cc7)CC6)cn5)C(=O)O)nn4)(C2)C3)s1.[Lu+3] [Compound 111.4] | 2.5 to 10 nM | > 10 nM | –
NS(=O)(=O)c1nnc(NC(=O)C23CC(c4cn(CCNC(=O)[C@@H]5CN(C(=O)CN6CCN(CC(=O)O)CCN(CC(=O)O)CCN(CC(=O)O)CC6)CCN5C(=O)C[C@H](Nc5ncc(C(=O)NCc6coc(C(F)(F)F)n6)cn5)C(=O)O)nn4)(C2)C3)s1.[Lu+3] [Compound 111.5] | 2.5 to 10 nM | > 10 nM | –
NS(=O)(=O)c1nnc(NC(=O)C23CC(c4cn(CCNC(=O)[C@@H]5CN(C(=O)CN6CCN(CC(=O)O)CCN(CC(=O)O)CCN(CC(=O)O)CC6)CCN5C(=O)C[C@H](Nc5ncc(C(=O)NCc6ccc(C(F)F)cc6)cn5)C(=O)O)nn4)(C2)C3)s1.[Lu+3] [Compound 111.6] | 2.5 to 10 nM | > 10 nM | –
NS(=O)(=O)c1nnc(NC(=O)C23CC(c4cn(CCNC(=O)[C@@H]5CN(C(=O)CN6CCN(CC(=O)O)CCN(CC(=O)O)CCN(CC(=O)O)CC6)CCN5C(=O)C[C@H](Nc5ncc(C(=O)NCCc6ccc(C(F)(F)F)cc6)cn5)C(=O)O)nn4)(C2)C3)s1.[Lu+3] [Compound 111.7] | 2.5 to 10 nM | > 10 nM | –
NS(=O)(=O)c1nnc(NC(=O)C23CC(c4cn(CCNC(=O)[C@@H]5CN(C(=O)CN6CCN(CC(=O)O)CCN(CC(=O)O)CCN(CC(=O)O)CC6)CCN5C(=O)C[C@H](Nc5ncc(C(=O)NCCc6ccc(F)c(F)c6)cn5)C(=O)O)nn4)(C2)C3)s1.[Lu+3] [Compound 111.8] | 2.5 to 10 nM | > 10 nM | –
NS(=O)(=O)c1nnc(NC(=O)C23CC(c4cn(CCNC(=O)[C@@H]5CN(C(=O)CN6CCN(CC(=O)O)CCN(CC(=O)O)CCN(CC(=O)O)CC6)CCN5C(=O)C[C@H](Nc5ncc(C(=O)NCC6CC7(CCC7)C6)cn5)C(=O)O)nn4)(C2)C3)s1.[Lu+3] [Compound 111.9] | 1 to 2.5 nM | > 10 nM | –
NS(=O)(=O)c1nnc(NC(=O)C23CC(c4cn(CCNC(=O)[C@@H]5CN(C(=O)CN6CCN(CC(=O)O)CCN(CC(=O)O)CCN(CC(=O)O)CC6)CCN5C(=O)C[C@H](Nc5ncc(C(=O)NCc6n[nH]c7ccccc67)cn5)C(=O)O)nn4)(C2)C3)s1.[Lu+3] [Compound 111.10] | 2.5 to 10 nM | > 10 nM | –
NS(=O)(=O)c1nnc(NC(=O)C23CC(c4cn(CCNC(=O)[C@@H]5CN(C(=O)CN6CCN(CC(=O)O)CCN(CC(=O)O)CCN(CC(=O)O)CC6)CCN5C(=O)C[C@H](Nc5ncc(C(=O)NCCc6ccc(C7CC7)cc6)cn5)C(=O)O)nn4)(C2)C3)s1.[Lu+3] [Compound 111.11] | 1 to 2.5 nM | > 10 nM | –
NCCNC(=O)c1cnc(N[C@@H](CC(=O)N2CCN(C(=O)CN3CCN(CC(=O)O)CCN(CC(=O)O)CCN(CC(=O)O)CC3)C[C@H]2C(=O)NCCn2cc(C34CC(C(=O)Nc5nnc(S(N)(=O)=O)s5)(C3)C4)nn2)C(=O)O)nc1.[Lu+3] [Compound 111.12] | 2.5 to 10 nM | > 10 nM | –
NS(=O)(=O)c1nnc(NC(=O)C23CC(c4cn(CCNC(=O)[C@@H]5CN(C(=O)CN6CCN(CC(=O)O)CCN(CC(=O)O)CCN(CC(=O)O)CC6)CCN5C(=O)C[C@H](Nc5ncc(C(=O)NCc6ccc(S(F)(F)(F)(F)F)cc6)cn5)C(=O)O)nn4)(C2)C3)s1.[Lu+3] [Compound 111] | – | – | Kd [1, 8]: 2.5 to 10 nM; Kd [2, 9]: > 10 nM
NS(=O)(=O)c1nnc(NC(=O)C23CC(c4cn(CCNC(=O)[C@@H]5CN(C(=O)CN6CCN(CC(=O)O)CCN(CC(=O)O)CCN(CC(=O)O)CC6)CCN5C(=O)CNC(=O)C5(C(=O)O)CCN(C(=O)Cc6ccc7cn[nH]c7c6)CC5)nn4)(C2)C3)s1.[Lu+3] [Compound 112.1] | 2.5 to 10 nM | > 10 nM | –
NS(=O)(=O)c1nnc(NC(=O)C23CCC(c4cn(CCNC(=O)[C@@H]5CN(C(=O)CN6CCN(CC(=O)O)CCN(CC(=O)O)CCN(CC(=O)O)CC6)CCN5C(=O)CNC(=O)C5(C(=O)O)CCN(C(=O)CCCc6ccc(I)cc6)CC5)nn4)(CC2)CC3)s1.[Lu+3] [Compound 112.2] | < 1 nM | 2.5 to 10 nM | –
NS(=O)(=O)c1nnc(NC(=O)C23CC(c4cn(CCNC(=O)[C@@H]5CN(C(=O)CN6CCN(CC(=O)O)CCN(CC(=O)O)CCN(CC(=O)O)CC6)CCN5C(=O)CNC(=O)C5(C(=O)O)CCN(C(=O)CCCCc6ccc(O)cc6)CC5)nn4)(C2)C3)s1.[Lu+3] [Compound 112.3] | 1 to 2.5 nM | > 10 nM | –
NS(=O)(=O)c1nnc(NC(=O)C23CC(c4cn(CCNC(=O)[C@@H]5CN(C(=O)CN6CCN(CC(=O)O)CCN(CC(=O)O)CCN(CC(=O)O)CC6)CCN5C(=O)CNC(=O)C5(C(=O)O)CCN(C(=O)CCc6n[nH]c7ccccc67)CC5)nn4)(C2)C3)s1.[Lu+3] [Compound 112.4] | 2.5 to 10 nM | > 10 nM | –
NS(=O)(=O)c1nnc(NC(=O)C23CC(c4cn(CCNC(=O)[C@@H]5CN(C(=O)CN6CCN(CC(=O)O)CCN(CC(=O)O)CCN(CC(=O)O)CC6)CCN5C(=O)CNC(=O)C5(C(=O)O)CCN(C(=O)CCCc6n[nH]c7ccccc67)CC5)nn4)(C2)C3)s1.[Lu+3] [Compound 112.5] | 2.5 to 10 nM | > 10 nM | –
NS(=O)(=O)c1nnc(NC(=O)C23CC(c4cn(CCNC(=O)[C@@H]5CN(C(=O)CN6CCN(CC(=O)O)CCN(CC(=O)O)CCN(CC(=O)O)CC6)CCN5C(=O)CNC(=O)C5(C(=O)O)CCN(C(=O)Cc6n[nH]c7ccccc67)CC5)nn4)(C2)C3)s1.[Lu+3] [Compound 112.6] | 1 to 2.5 nM | > 10 nM | –
